From US20090298825A1, “Bicycloheteroaryl Compounds as P2x7 Modulators and Uses Thereof” (priority 2006, published 2009)
pIC50: −log10 of the molar value.

Molecular target: T1, P2X7 receptor (Homo sapiens, UniProt Q99572)
T1 construct: endogenous in cells; host or cells: THP-1 cells differentiated with LPS and IFN-γ
T1 sequence (Q99572 1-595): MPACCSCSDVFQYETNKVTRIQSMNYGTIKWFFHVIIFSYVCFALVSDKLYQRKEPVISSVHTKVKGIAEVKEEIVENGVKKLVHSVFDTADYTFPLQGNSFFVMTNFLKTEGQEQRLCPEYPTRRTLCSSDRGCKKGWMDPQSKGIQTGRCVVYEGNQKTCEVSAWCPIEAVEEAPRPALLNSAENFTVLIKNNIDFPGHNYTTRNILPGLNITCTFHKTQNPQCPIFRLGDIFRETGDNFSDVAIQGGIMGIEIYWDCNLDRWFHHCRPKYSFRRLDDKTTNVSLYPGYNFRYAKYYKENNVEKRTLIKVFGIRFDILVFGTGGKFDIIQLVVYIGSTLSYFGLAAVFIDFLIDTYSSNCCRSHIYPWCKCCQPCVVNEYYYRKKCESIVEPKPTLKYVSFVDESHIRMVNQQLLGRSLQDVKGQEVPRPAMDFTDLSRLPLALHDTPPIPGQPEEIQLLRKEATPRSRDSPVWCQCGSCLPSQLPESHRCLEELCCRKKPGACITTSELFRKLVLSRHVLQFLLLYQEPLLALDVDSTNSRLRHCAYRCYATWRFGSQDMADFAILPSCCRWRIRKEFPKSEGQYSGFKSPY
Assay: IL-1β release assay in differentiated THP-1 cells stimulated with BzATP (Example 9)
Assay type: cell-based
Settings: for inhibition at 0.3 µM: 0.3 μM concentration; for inhibition at 0.3 µM / inhibition at 0.1 µM: read-out: IL-1β % Inhib. @ 0.3 or 0.1 μM; for pIC50: four parameter logistic fit, read-out: IL-1β IC50; for inhibition at 0.1 µM: 0.1 μM concentration
Method: The cells are then pretreated for 30 minutes with the compound of interest at the appropriate concentration in RPMI media containing 100 IU/mL penicillin, 100 ug/mL streptomycin. […] 30 uL of cell supernatant is then collected and IL-1β levels determined via ELISA (R&D systems Cat. # HSLB50) according to manufacturer's recommendations using the Tecan Safire plate reader. Background adjusted IL-1β levels of drug treated and non-treated cells are used to calculate the percent inhibition.
The compounds set forth in Table 1 were tested for activity in a cellular model as described herein. […] Measurements were made and IC50 values, presented in Table 2, below, were determined by fitting the data to a four parameter logistic equation using GraphPad Prism software (GraphPad Software, Inc). The equation may be expressed by the following formula:
Y=Bottom+(Top-Bottom)/(1+10̂((Log EC50−X)*HillSlope))
Where X is the logarithm of concentration, Y is the response and Y starts at Bottom and goes to Top with a sigmoid shape.

inhibition at 0.3 µM | pIC50 | inhibition at 0.1 µM | SMILES
 |  | 0 to 25% | COc1ccc(CC(=O)Nc2cccc3c(=O)n(-c4cc(C)on4)ccc23)cc1 [ID 732]
 |  | 0 to 25% | Cc1ccc(CC(=O)Nc2cccc3c(=O)n(-c4cc(C)on4)ccc23)cc1 [ID 733]
 |  | 0 to 25% | Cc1cc(-n2ccc3c(NC(=O)c4cc5ccccc5o4)cccc3c2=O)no1 [ID 734]
 |  | > 76% | Cc1cc(-n2ccc3c(NC(=O)CC4CC5CCC4C5)cccc3c2=O)no1 (stereo not drawn) [ID 735]
 |  | 0 to 25% | Cc1cc(-n2ccc3c(NC(=O)c4cccc5c4OCCO5)cccc3c2=O)no1 [ID 736]
 |  | 0 to 25% | Cc1cc(C)cc(CC(=O)Nc2cccc3c(=O)n(-c4cc(C)on4)ccc23)c1 [ID 737]
 |  | 0 to 25% | Cc1cc(-n2ccc3c(NC(=O)C4C[C@@H]5CC[C@H]4C5)cccc3c2=O)no1 (stereo partly drawn) [ID 738]
 |  | 0 to 25% | COc1ccc(CC(=O)Nc2cccc3c(=O)n(-c4cc(C)on4)ccc23)c(OC)c1 [ID 739]
 |  | 0 to 25% | Cc1cc(-n2ccc3c(NC(=O)c4ccc(F)c(C)c4)cccc3c2=O)no1 [ID 740]
 |  | 0 to 25% | COc1ccc(CC(=O)Nc2cccc3c(=O)n(-c4cc(C)on4)ccc23)cc1C [ID 741]
 |  | 0 to 25% | Cc1cccc(CCC(=O)Nc2cccc3c(=O)n(-c4cc(C)on4)ccc23)c1 [ID 742]
 |  | 0 to 25% | Cc1cc(-n2ccc3c(NC(=O)c4cccc(C)c4Cl)cccc3c2=O)no1 [ID 743]
 |  | 0 to 25% | COc1ccc(C(=O)Nc2cccc3c(=O)n(-c4cc(C)on4)ccc23)cc1C [ID 744]
 |  | 0 to 25% | Cc1ccc(CCC(=O)Nc2cccc3c(=O)n(-c4cc(C)on4)ccc23)c(C)c1 [ID 745]
 |  | 51 to 75% | Cc1cc(-n2ccc3c(NC(=O)CCc4cccc(Cl)c4)cccc3c2=O)no1 [ID 746]
 |  | 0 to 25% | Cc1cc(-n2ccc3c(NC(=O)c4ccc(CC(C)C)cc4)cccc3c2=O)no1 [ID 747]
 |  | 0 to 25% | CCOC(=O)N1CCC(n2ccc3c(NC(=O)c4ccc(OCC)cc4O)cccc3c2=O)CC1 [ID 748]
 |  | 0 to 25% | CCOC(=O)N1CCC(n2ccc3c(NC(=O)c4ccc(OC)cc4C)cccc3c2=O)CC1 [ID 749]
 |  | 0 to 25% | CCOC(=O)N1CCC(n2ccc3c(NC(=O)[C@H]4CC[C@H](C)CC4)cccc3c2=O)CC1 [ID 750]
 |  | 0 to 25% | CCOC(=O)N1CCC(n2ccc3c(NC(=O)CCc4ccccc4C)cccc3c2=O)CC1 [ID 751]
 |  | 0 to 25% | CCOC(=O)N1CCC(n2ccc3c(NC(=O)c4ccc(-c5ccccc5)o4)cccc3c2=O)CC1 [ID 752]
 |  | 0 to 25% | CCOC(=O)N1CCC(n2ccc3c(NC(=O)CCc4cccc(OC)c4)cccc3c2=O)CC1 [ID 753]
 |  | 0 to 25% | CCOC(=O)N1CCC(n2ccc3c(NC(=O)Cc4c(C)cc(C)cc4C)cccc3c2=O)CC1 [ID 754]
 |  | 0 to 25% | CCOC(=O)N1CCC(n2ccc3c(NC(=O)Cc4cc(C)ccc4C)cccc3c2=O)CC1 [ID 755]
 |  | 0 to 25% | CCOC(=O)N1CCC(n2ccc3c(NC(=O)c4ccc(OC)c(Cl)c4)cccc3c2=O)CC1 [ID 756]

Continued, compound first:

SMILES | inhibition at 0.3 µM | pIC50 | inhibition at 0.1 µM
CC12CC3CC(C)(C1)CC(CC(=O)Nc1cccc4c(=O)n(-c5cccnc5)ccc14)(C3)C2 [ID 701] | > 76% | 8.49 | 
Cc1ccncc1-n1ccc2c(NC(=O)CC34CC5CC(CC(C5)C3)C4)cccc2c1=O [ID 702] | > 76% | 9.75 | 
Cc1ccc(-n2ccc3c(NC(=O)CC45CC6CC(CC(C6)C4)C5)cccc3c2=O)c(C)n1 [ID 703] | > 76% | 7.88 | 
O=C(CC12CC3CC(CC(C3)C1)C2)Nc1cccc2c(=O)n(-c3ccc(Oc4ccc(Br)cc4)nc3)ccc12 [ID 704] | > 76% | 9.49 | 
COc1ccc(-n2ccc3c(NC(=O)CC45CC6CC(CC(C6)C4)C5)cccc3c2=O)cn1 [ID 705] | > 76% | 8.62 | 
O=C(CC12CC3CC(CC(C3)C1)C2)Nc1cccc2c(=O)n(-c3cnc4ccccc4c3)ccc12 [ID 706] | > 76% | 7.24 | 
O=C(CC12CC3CC(CC(C3)C1)C2)Nc1cccc2c(=O)n(-c3ccc(Sc4cc(Cl)ccc4Cl)nc3)ccc12 [ID 707] | > 76% | 8.79 | 
Cc1ccc(Oc2ncccc2-n2ccc3c(NC(=O)CC45CC6CC(CC(C6)C4)C5)cccc3c2=O)c2c1CCC2 [ID 708] | > 76% | 7.58 | 
O=C(CC12CC3CC(CC(C3)C1)C2)Nc1cccc2c(=O)n(-c3ccc(N4CCOCC4)nc3)ccc12 [ID 709] | > 76% | 7.59 | 
COc1ncccc1-n1ccc2c(NC(=O)CC34CC5CC(CC(C5)C3)C4)cccc2c1=O [ID 710] | > 76% | 9.61 | 
O=C(CC12CC3CC(CC(C3)C1)C2)Nc1cccc2c(=O)n(-c3ccc(Oc4ccccc4)nc3)ccc12 [ID 711] | > 76% | 9.14 | 
O=C(CC12CC3CC(CC(C3)C1)C2)Nc1cccc2c(=O)n(-c3cccnc3N3CCOCC3)ccc12 [ID 712] | > 76% | 9.42 | 
O=C(CC12CC3CC(CC(C3)C1)C2)Nc1cccc2c(=O)n(-c3ccc(Oc4c(Cl)cccc4Cl)nc3)ccc12 [ID 713] | > 76% | 7.97 | 
O=C(CC12CC3CC(CC(C3)C1)C2)Nc1cccc2c(=O)n(-c3cccnc3Oc3ccccc3F)ccc12 [ID 714] | > 76% | 8.39 | 
Cc1ccc(C)c(CC(=O)Nc2cccc3c(=O)n(-c4cc(C)on4)ccc23)c1 [ID 716] |  |  | 0 to 25%
CCOc1cccc(C(=O)Nc2cccc3c(=O)n(-c4cc(C)on4)ccc23)c1 [ID 717] |  |  | 0 to 25%
Cc1cc(-n2ccc3c(NC(=O)CCc4ccccc4Cl)cccc3c2=O)no1 [ID 718] |  |  | 0 to 25%
Cc1cc(-n2ccc3c(NC(=O)c4ccccc4Cl)cccc3c2=O)no1 [ID 719] |  |  | 0 to 25%
Cc1cc(-n2ccc3c(NC(=O)c4ccccc4C)cccc3c2=O)no1 [ID 720] |  |  | 0 to 25%
Cc1cc(-n2ccc3c(NC(=O)c4cccc(C)c4C)cccc3c2=O)no1 [ID 721] |  |  | 0 to 25%
Cc1ccc(C)c(C(=O)Nc2cccc3c(=O)n(-c4cc(C)on4)ccc23)c1 [ID 722] |  |  | 26 to 50%
Cc1cccc(C(=O)Nc2cccc3c(=O)n(-c4cc(C)on4)ccc23)c1 [ID 723] |  |  | 0 to 25%
COc1ccccc1CCC(=O)Nc1cccc2c(=O)n(-c3cc(C)on3)ccc12 [ID 724] |  |  | 0 to 25%
COc1ccc(CCC(=O)Nc2cccc3c(=O)n(-c4cc(C)on4)ccc23)cc1 [ID 725] |  |  | 0 to 25%
Cc1cc(-n2ccc3c(NC(=O)Cc4ccccc4F)cccc3c2=O)no1 [ID 726] |  |  | 0 to 25%
COc1ccccc1CC(=O)Nc1cccc2c(=O)n(-c3cc(C)on3)ccc12 [ID 727] |  |  | 0 to 25%
COc1ccc(OC)c(CC(=O)Nc2cccc3c(=O)n(-c4cc(C)on4)ccc23)c1 [ID 728] |  |  | 0 to 25%
Cc1cc(-n2ccc3c(NC(=O)Cc4ccccc4C)cccc3c2=O)no1 [ID 729] |  |  | 0 to 25%
COc1cccc(CC(=O)Nc2cccc3c(=O)n(-c4cc(C)on4)ccc23)c1 [ID 730] |  |  | 0 to 25%
Cc1cccc(CC(=O)Nc2cccc3c(=O)n(-c4cc(C)on4)ccc23)c1 [ID 731] |  |  | 0 to 25%
